Laboratory results taken from patent publication US9890185B2, “Urea derivatives useful as kinase inhibitors” (Respivert Limited, priority 2013, dated 2018).
pIC50: −log10 of the molar value.

Tests used:
GSK 3α = GSK 3α (Homo sapiens (Human), UniProt P49840); assay: GSK 3α enzyme inhibition (FRET, Z-LYTE, Method 2); assay type: biochemical; conditions: read-out: IC50 Values for Enzyme Inhibition, GSK3α
Method in brief: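 Recombinant human GSK3α was preincubated with compound (stocks 4, 0.4, 0.04 or 0.004 μg/mL) at RT, 2 hr for Method 1 and 105 min for Method 2. FRET peptide (8 μM stock) and ATP (40 μM stock) were added for 1 hr, then protease development for 1 hr. IC50 was taken from concentration–response curves.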

[1] = target: p38 MAPKα isoform (MAPK14) (Homo sapiens (Human), UniProt Q16539); assay: p38 MAPKα enzyme inhibition (FRET, Z-LYTE, Method 2); assay type: biochemical
Method in brief: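 Z-LYTE FRET: p38 MAPKα (80 ng/mL for Method 1, 200 ng/mL for Method 2, pre-dilution) preincubated 2 hr RT with compound (4–0.004 μg/mL solutions), activity read via MAPKAP-K2 phosphorylation after 1 hr RT and 1 hr protease development. Coumarin/fluorescein ratio gives phosphorylation; % inhibition versus uninhibited control, IC50 from concentration-response curve.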

PBMCs [2] = assay: LPS-induced IL-8 release in PBMC cells (assay b); assay type: cell-based, human; conditions: Homo sapiens, PBMC; LPS-stimulated PBMCs; read-out: IC50 Values for Inhibition of Cytokine Release, PBMCs IL-8
Method in brief: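 Human PBMCs from healthy donors, isolated by density gradient, were pretreated with compound for 2 h and then stimulated with 1 ng/mL LPS (E. coli 0111:B4) for 24 h at 37° C, 5% CO2. Supernatant IL-8 and TNFα were measured by sandwich ELISA, and IC50 was taken from the dose-response curve.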

c-Src = c-Src (Homo sapiens (Human), UniProt P12931); assay: c-Src enzyme inhibition (FRET, Z-LYTE); assay type: biochemical
Method in brief: (§1)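 c-Src (3000 ng/mL) or Syk (2000 ng/mL) stock was preincubated with compound (4–0.004 μg/mL stocks) for 2 hr at RT. FRET peptide (8 μM stock) and ATP (800 μM c-Src, 60 μM Syk, as added) were then added for 1 hr, followed by 1 hr protease development. The coumarin/fluorescein emission ratio gave % inhibition and IC50.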

PBMCs [3] = assay: IFN gamma release in CD3/CD28 stimulated PBMC cells (assay c); assay type: cell-based; conditions: Homo sapiens, read-out: IC50 Values for Inhibition of Cytokine Release, PBMCs IFNγ
Method in brief: (§2)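 Healthy-donor PBMCs, isolated by density gradient, were plated in wells pre-coated with anti-CD3 (0.3 μg/mL) and anti-CD28 (3 μg/mL) antibodies, then exposed to compound for 3 days under normal culture conditions. IL-2 and IFN gamma in supernatants were measured by sandwich ELISA; IC50 taken from the dose-response curve.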

PBMCs [4] = assay: Cell mitosis assay in PBMCs (assay g); assay type: cell-based; conditions: Homo sapiens, PBMC, test compound 5 μg/mL
Method in brief: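 Human PBMCs from healthy donors, stimulated with 2% PHA for 48 hr, then exposed to test compounds for 20 hr, with demecolcine (0.1 μg/mL) added 2 hr before harvest. Cells fixed/permeabilised, stained for phospho-histone 3 and propidium iodide, and read by flow cytometry gated on lymphocytes. % mitosis inhibition vs 0.5% DMSO vehicle.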

PBMCs [5] = assay: IL-2 release in CD3/CD28 stimulated PBMC cells (assay c); assay type: cell-based; conditions: Homo sapiens, read-out: IC50 Values for Inhibition of Cytokine Release, PBMCs IL-2
Method in brief: as §2

Syk = Syk (Homo sapiens (Human), UniProt P43405); assay: Syk enzyme inhibition (FRET, Z-LYTE); assay type: biochemical
Method in brief: as §1

GSK 3α, sequence (P49840 whole entry): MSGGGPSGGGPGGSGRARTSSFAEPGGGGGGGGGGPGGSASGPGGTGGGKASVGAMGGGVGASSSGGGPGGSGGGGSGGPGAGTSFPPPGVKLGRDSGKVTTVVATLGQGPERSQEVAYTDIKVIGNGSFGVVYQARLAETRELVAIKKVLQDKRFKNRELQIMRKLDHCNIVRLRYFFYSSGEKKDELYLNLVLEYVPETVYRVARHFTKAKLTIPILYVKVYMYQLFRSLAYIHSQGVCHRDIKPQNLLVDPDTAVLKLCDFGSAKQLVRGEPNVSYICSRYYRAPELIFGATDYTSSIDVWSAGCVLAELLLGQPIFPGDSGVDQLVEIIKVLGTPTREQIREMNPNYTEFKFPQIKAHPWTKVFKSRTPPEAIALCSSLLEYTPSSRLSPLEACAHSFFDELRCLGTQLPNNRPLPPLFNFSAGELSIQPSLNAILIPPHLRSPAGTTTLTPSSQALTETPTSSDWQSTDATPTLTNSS
c-Src, sequence (P12931 whole entry, looked up): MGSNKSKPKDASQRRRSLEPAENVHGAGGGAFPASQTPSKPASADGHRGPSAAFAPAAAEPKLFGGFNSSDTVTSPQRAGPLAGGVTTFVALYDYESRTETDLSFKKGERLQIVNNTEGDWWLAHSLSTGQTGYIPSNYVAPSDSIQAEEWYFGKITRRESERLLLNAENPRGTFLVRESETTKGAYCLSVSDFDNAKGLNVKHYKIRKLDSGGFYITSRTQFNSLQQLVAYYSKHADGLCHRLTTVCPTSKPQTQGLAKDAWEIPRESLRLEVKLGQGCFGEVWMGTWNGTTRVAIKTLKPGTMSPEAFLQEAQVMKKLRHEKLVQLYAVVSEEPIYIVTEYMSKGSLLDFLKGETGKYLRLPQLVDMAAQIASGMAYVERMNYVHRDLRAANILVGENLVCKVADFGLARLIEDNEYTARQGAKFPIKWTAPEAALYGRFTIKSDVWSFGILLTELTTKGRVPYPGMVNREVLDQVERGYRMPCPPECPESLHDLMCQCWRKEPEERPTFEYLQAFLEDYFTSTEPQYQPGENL
p38 MAPKα isoform (MAPK14), sequence (Q16539 whole entry, canonical isoform): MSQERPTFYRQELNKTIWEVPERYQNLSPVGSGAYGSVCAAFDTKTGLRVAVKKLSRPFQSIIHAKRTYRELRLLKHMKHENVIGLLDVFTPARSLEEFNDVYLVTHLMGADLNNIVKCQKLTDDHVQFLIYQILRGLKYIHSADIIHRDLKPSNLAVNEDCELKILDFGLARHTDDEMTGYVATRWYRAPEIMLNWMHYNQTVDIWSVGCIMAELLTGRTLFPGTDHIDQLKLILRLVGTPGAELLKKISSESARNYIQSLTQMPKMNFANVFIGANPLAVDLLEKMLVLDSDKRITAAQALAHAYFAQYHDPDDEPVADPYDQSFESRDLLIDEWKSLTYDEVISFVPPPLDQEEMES

pIC50 (GSK 3α) | pIC50 [1] | pIC50 (c-Src) | pIC50 (Syk) | SMILES | pIC50 (PBMCs [2]) | pIC50 (PBMCs [3]) | inhibition at 5 µg/mL (PBMCs [4]) | pIC50 (PBMCs [5])
5.80 | 6.73 | 7.08 | < 5.84 | COc1cc(Nc2cc(Oc3ccc(NC(=O)Nc4cc(C(C)(C)C)cc(CC(N)=O)c4OC)c4ccccc34)ccn2)cc(S(C)(=O)=O)c1 [Example 56, 2-(5-(tert-Butyl)-2-methoxy-3-(3-(4-((2-((3-methoxy-5-(methylsulfonyl)phenyl)amino)pyridin-4-yl)oxy)naphthalen-1-yl)ureido)phenyl)acetamide] | 8.92 | 8.02 | 17.6% | 6.63
5.41 | 6.68 | 7.01 | < 5.82 | COc1cc(Nc2cc(Oc3ccc(NC(=O)Nc4cc(C(C)(C)C)cc(OCCO)c4OC)c4ccccc34)ccn2)cc(C(N)=O)c1 [Example 57, 3-((4-((4-(3-(5-(tert-Butyl)-3-(2-hydroxyethoxy)-2-methoxyphenyl)ureido)naphthalen-1-yl)oxy)pyridin-2-yl)amino)-5-methoxybenzamide] | 8.96 | 8.11 | 50.6% | 7.03
5.15 | 6.28 | 7.00 | < 5.87 | COc1cc(Nc2cc(Oc3ccc(NC(=O)Nc4cc(C(C)(C)C)cc(P(C)(C)=O)c4OC)c4ccccc34)ccn2)cc(S(=O)(=O)N(C)C)c1 [Example 58, 3-((4-((4-(3-(5-(tert-Butyl)-3-(dimethylphosphoryl)-2-methoxyphenyl)ureido)naphthalen-1-yl)oxy)pyridin-2-yl)amino)-5-methoxy-N,N-dimethylbenzenesulfonamide] | 8.85 | 8.49 | 2.9% | 6.23
5.12 | 6.09 | 7.01 | 6.81 | COc1cccc(Nc2cc(Oc3ccc(NC(=O)Nc4cc(C(C)(C)C)cc(C(=O)NCCN5CCOCC5)c4OC)c4ccccc34)ccn2)c1 [Example 63, 5-(tert-Butyl)-2-methoxy-3-(3-(4-((2-((3-methoxyphenyl)amino)pyridin-4-yl)oxy)naphthalen-1-yl)ureido)-N-(2-morpholinoethyl)benzamide] | 8.60 | 8.11 | 45.1% | 7.76
5.03 | 6.02 | 7.05 | 6.81 | COc1cc(Nc2cc(Oc3ccc(NC(=O)Nc4cc(C(C)(C)C)cc(C(=O)NCCN5CC[S+]([O-])CC5)c4OC)c4ccccc34)ccn2)cc(OC)c1 [Example 64, 5-(tert-Butyl)-3-(3-(4-((2-((3,5-dimethoxyphenyl)amino)pyridin-4-yl)oxy)naphthalen-1-yl)ureido)-2-methoxy-N-(2-(1-oxidothiomorpholino)ethyl)benzamide] | 8.59 | 7.88 | 32.4% | 7.20
5.91 | 7.77 | 7.82 | 6.72 | COc1cc(Nc2cc(Oc3ccc(NC(=O)Nc4cc(C(C)(C)C)cc(CC(N)=O)c4OC)c4ccccc34)ccn2)cc(C(=O)NCCN2CC[S+]([O-])CC2)c1 [Example 65, 3-((4-((4-(3-(3-(2-Amino-2-oxoethyl)-5-(tert-butyl)-2-methoxyphenyl)ureido)naphthalen-1-yl)oxy)pyridin-2-yl)amino)-5-methoxy-N-(2-(1-oxidothiomorpholino)ethyl)benzamide] | 8.37 | 8.12 | 8.7% | 7.50
5.37 | 6.65 | 7.27 | 6.04 | COc1cc(Nc2cc(Oc3ccc(NC(=O)Nc4cc(C(C)(C)C)cc(OC(CO)CO)c4OC)c4ccccc34)ccn2)cc(C(N)=O)c1 [Example 66, 3-((4-((4-(3-(5-(tert-Butyl)-3-((1,3-dihydroxypropan-2-yl)oxy)-2-methoxyphenyl)ureido)naphthalen-1-yl)oxy)pyridin-2-yl)amino)-5-methoxybenzamide] | 8.66 | 8.11 | 46.4% | 7.22
5.88 | 7.89 | 7.74 | 6.84 | COc1cc(Nc2cc(Oc3ccc(NC(=O)Nc4cc(C(C)(C)C)cc(CC(N)=O)c4OC)c4ccccc34)ccn2)cc(C(=O)NCCCN2CC[S+]([O-])CC2)c1 [Example 68, 3-((4-((4-(3-(3-(2-Amino-2-oxoethyl)-5-(tert-butyl)-2-methoxyphenyl)ureido)naphthalen-1-yl)oxy)pyridin-2-yl)amino)-5-methoxy-N-(3-(1-oxidothiomorpholino)propyl)benzamide] | 8.42 | 8.10 | -0.6% | 7.39
5.71 | 7.80 | 7.92 | 6.91 | COc1cc(Nc2cc(Oc3ccc(NC(=O)Nc4cc(C(C)(C)C)cc([S+](C)[O-])c4OC)c4ccccc34)ccn2)cc(C(=O)NCCN2CC[S+]([O-])CC2)c1 (stereo not drawn) [Example 69, 3-((4-((4-(3-(5-(tert-Butyl)-2-methoxy-3-(methylsulfinyl)phenyl)ureido)naphthalen-1-yl)oxy)pyridin-2-yl)amino)-5-methoxy-N-(2-(1-oxidothiomorpholino)ethyl)benzamide] | 8.64 | 8.12 | 8.9% | 7.12

SMILES | pIC50 (GSK 3α) | pIC50 [1] | pIC50 (c-Src) | pIC50 (Syk) | pIC50 (PBMCs [2]) | pIC50 (PBMCs [3]) | inhibition at 5 µg/mL (PBMCs [4]) | pIC50 (PBMCs [5])
COCCOCCOCCNC(=O)c1cc(Nc2cc(Oc3ccc(NC(=O)Nc4cc(C(C)(C)C)cc(C(=O)NCCN5CCOCC5)c4OC)c4ccccc34)ccn2)cc(OC)c1 [Example 59, 5-(tert-Butyl)-2-methoxy-3-(3-(4-((2-((3-methoxy-5-((2-(2-(2-methoxyethoxy)ethoxy)ethyl)carbamoyl)phenyl)amino)pyridin-4-yl)oxy)naphthalen-1-yl)ureido)-N-(2-morpholinoethyl)benzamide] | 5.60 | 6.90 | 7.37 | 6.25 | 8.77 | 8.54 | 30.9% | 7.25
COc1cc(Nc2cc(Oc3ccc(NC(=O)Nc4cc(C(C)(C)C)cc(C(=O)NCCN5CCOCC5)c4OC)c4ccccc34)ccn2)cc(C(=O)NCCN2CCOCC2)c1 [Example 60, 5-(tert-Butyl)-2-methoxy-3-(3-(4-((2-((3-methoxy-5-((2-morpholinoethyl)carbamoyl)phenyl)amino)pyridin-4-yl)oxy)naphthalen-1-yl)ureido)-N-(2-morpholinoethyl)benzamide] | 5.77 | 6.89 | 7.46 | 6.69 | 8.62 | 8.15 | 47.5% | 6.99
COc1cc(Nc2cc(Oc3ccc(NC(=O)Nc4cc(C(C)(C)C)cc(C(=O)NCCN5CCOCC5)c4OC)c4ccccc34)ccn2)cc(OC)c1 [Example 62, 5-(tert-Butyl)-3-(3-(4-((2-((3,5-dimethoxyphenyl)amino)pyridin-4-yl)oxy)naphthalen-1-yl)ureido)-2-methoxy-N-(2-morpholinoethyl)benzamide] | < 4.94 | 6.32 | 6.98 | 6.84 | 8.62 | 8.32 | 54.1% | 7.60
